What was measured:
[1] = tested on: Hepatotoxicity;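 for HepSE bilirubinemia: bilirubinemia hepatic side effect score drawn from the DILIps training data, a prediction system for drug-induced liver injury; call rule not given here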;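 for HepSE cholecystitis: Cholecystitis-related hepatic side effect score drawn from the DILIps (drug-induced liver injury prediction) training data set; call rule not given here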;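 for HepSE cholelithiasis: hepatic side effect score for cholelithiasis, drawn from the DILIps training data for predicting drug-induced liver injury; call rule not given here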;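 for HepSE cirrhosis: cirrhosis hepatic side effect score taken from the DILIps (drug-induced liver injury prediction) training set; call rule not given here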;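 for HepSE elevated liver function tests: hepatic side effect score for raised liver function tests, as recorded in the DILIps training set used for predicting drug-induced liver injury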; for HepSE hepatic failure: call rule not given here;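 for HepSE hepatomegaly: hepatic side effect score for hepatomegaly, taken from the training set of the DILIps drug-induced liver injury prediction system; call rule not given here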
[2] = tested on: Hepatotoxicity; remark: listed apart in the source;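 for HepSE bilirubinemia: bilirubinemia hepatic side effect score drawn from the DILIps training data, a prediction system for drug-induced liver injury; call rule not given here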;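 for HepSE cholecystitis: Cholecystitis-related hepatic side effect score drawn from the DILIps (drug-induced liver injury prediction) training data set; call rule not given here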;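 for HepSE cholelithiasis: hepatic side effect score for cholelithiasis, drawn from the DILIps training data for predicting drug-induced liver injury; call rule not given here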;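 for HepSE cirrhosis: cirrhosis hepatic side effect score taken from the DILIps (drug-induced liver injury prediction) training set; call rule not given here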;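 for HepSE elevated liver function tests: hepatic side effect score for raised liver function tests, as recorded in the DILIps training set used for predicting drug-induced liver injury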; for HepSE hepatic failure: call rule not given here
[3] = tested on: Hepatotoxicity; remark: listed apart in the source;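 for HepSE bilirubinemia: bilirubinemia hepatic side effect score drawn from the DILIps training data, a prediction system for drug-induced liver injury; call rule not given here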;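 for HepSE cholecystitis: Cholecystitis-related hepatic side effect score drawn from the DILIps (drug-induced liver injury prediction) training data set; call rule not given here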;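 for HepSE cholelithiasis: hepatic side effect score for cholelithiasis, drawn from the DILIps training data for predicting drug-induced liver injury; call rule not given here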;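 for HepSE cirrhosis: cirrhosis hepatic side effect score taken from the DILIps (drug-induced liver injury prediction) training set; call rule not given here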;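 for HepSE elevated liver function tests: hepatic side effect score for raised liver function tests, as recorded in the DILIps training set used for predicting drug-induced liver injury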; for HepSE hepatic failure: call rule not given here
[4] = tested on: Hepatotoxicity; remark: listed apart in the source;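 for HepSE bilirubinemia: bilirubinemia hepatic side effect score drawn from the DILIps training data, a prediction system for drug-induced liver injury; call rule not given here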;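 for HepSE cholecystitis: Cholecystitis-related hepatic side effect score drawn from the DILIps (drug-induced liver injury prediction) training data set; call rule not given here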;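 for HepSE cholelithiasis: hepatic side effect score for cholelithiasis, drawn from the DILIps training data for predicting drug-induced liver injury; call rule not given here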;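 for HepSE cirrhosis: cirrhosis hepatic side effect score taken from the DILIps (drug-induced liver injury prediction) training set; call rule not given here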;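 for HepSE elevated liver function tests: hepatic side effect score for raised liver function tests, as recorded in the DILIps training set used for predicting drug-induced liver injury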; for HepSE hepatic failure: call rule not given here
[5] = tested on: Hepatotoxicity; remark: listed apart in the source; for HepSE hepatic failure: call rule not given here
[6] = tested on: Hepatotoxicity; remark: listed apart in the source; for HepSE hepatic failure: call rule not given here
[7] = tested on: Hepatotoxicity; remark: listed apart in the source
[8] = tested on: Hepatotoxicity; remark: listed apart in the source
[9] = tested on: Hepatotoxicity; remark: listed apart in the source
[10] = tested on: Hepatotoxicity; remark: listed apart in the source
[11] = tested on: Hepatotoxicity; remark: listed apart in the source
[12] = tested on: Hepatotoxicity; remark: listed apart in the source
[13] = tested on: Hepatotoxicity; remark: listed apart in the source
[14] = tested on: Hepatotoxicity; remark: listed apart in the source

Row | Structure (SMILES) | HepSE_bilirubinemia [1] | HepSE_cholecystitis [2] | HepSE_cholelithiasis [3] | HepSE_cirrhosis [4] | HepSE_elevated liver function tests [5] | HepSE_hepatic failure [6] | HepSE_hepatic necrosis [7] | HepSE_hepatitis [8] | HepSE_hepatomegaly [9] | HepSE_jaundice [10] | HepSE_liver disease [11] | HepSE_liver fatty [12] | HepSE_liver function tests abnormal [13] | HepSE_Combined Scores [14] | also measured
1 | CNCCC(Oc1ccc(C(F)(F)F)cc1)c1ccccc1 (stereo not drawn) [FLUOXETINE] | 0 | 1 | 1 | 0 | 0 | 1 | 0 | 1 | 1 | 1 | 0 | 1 | 1 | 8 | 
2 | C[C@]1(O)CC[C@H]2[C@@H]3CCC4=CC(=O)CC[C@]4(C)[C@@]3(F)[C@@H](O)C[C@@]21C [FLUOXYMESTERONE] | 0 | 0 | 0 | 0 | 0 | 0 | 0 | 0 | 0 | 1 | 0 | 0 | 0 | 1 | 
3 | OCCN1CCN(CCCN2c3ccccc3Sc3ccc(C(F)(F)F)cc32)CC1 [FLUPHENAZINE] | 0 | 0 | 0 | 0 | 0 | 0 | 0 | 1 | 0 | 1 | 0 | 0 | 0 | 2 | 
4 | CC1(C)O[C@@H]2C[C@H]3[C@@H]4C[C@H](F)C5=CC(=O)CC[C@]5(C)[C@H]4[C@@H](O)C[C@]3(C)[C@]2(C(=O)CO)O1 [FLURANDRENOLIDE] | 0 | 0 | 0 | 0 | 0 | 0 | 0 | 0 | 0 | 0 | 0 | 0 | 0 | 0 | 
5 | CCN(CC)CCN1C(=O)CN=C(c2ccccc2F)c2cc(Cl)ccc21 [FLURAZEPAM] | 0 | 0 | 0 | 0 | 0 | 0 | 0 | 0 | 0 | 0 | 0 | 0 | 0 | 0 | 
6 | CC(C(=O)O)c1ccc(-c2ccccc2)c(F)c1 (stereo not drawn) [FLURBIPROFEN] | 0 | 1 | 0 | 0 | 0 | 1 | 0 | 1 | 0 | 1 | 0 | 0 | 0 | 4 | 
7 | CC(C)C(=O)Nc1ccc([N+](=O)[O-])c(C(F)(F)F)c1 [FLUTAMIDE] | 0 | 0 | 0 | 0 | 0 | 0 | 1 | 1 | 0 | 1 | 0 | 0 | 0 | 3 | 
8 | C[C@@H]1C[C@H]2[C@@H]3C[C@H](F)C4=CC(=O)C=C[C@]4(C)[C@@]3(F)[C@@H](O)C[C@]2(C)[C@@]1(O)C(=O)SCF [FLUTICASONE] | 0 | 1 | 0 | 0 | 0 | 0 | 0 | 0 | 0 | 0 | 0 | 0 | 0 | 1 | 
9 | CC(C)n1c(/C=C/C(O)CC(O)CC(=O)O)c(-c2ccc(F)cc2)c2ccccc21 (stereo not drawn) [FLUVASTATIN] |  |  |  |  |  |  |  |  |  |  |  |  |  |  | HepSE_bilirubinemia ([1]; Liver): 0; HepSE_cholecystitis ([2]; Liver): 0; HepSE_cholelithiasis ([3]; Liver): 0; HepSE_cirrhosis ([4]; Liver): 1; HepSE_elevated liver function tests ([5]; Liver): 0; HepSE_hepatic failure ([6]; Liver): 0; HepSE_hepatic necrosis ([7]; Liver): 1; HepSE_hepatitis ([8]; Liver): 1; HepSE_hepatomegaly ([9]; Liver): 0; HepSE_jaundice ([10]; Liver): 1; HepSE_liver disease ([11]; Liver): 0; HepSE_liver fatty ([12]; Liver): 0; HepSE_liver function tests abnormal ([13]; Liver): 0; HepSE_Combined Scores ([14]; Liver): 4
10 | COCCCC/C(=N\OCCN)c1ccc(C(F)(F)F)cc1 [FLUVOXAMINE] | 0 | 1 | 1 | 0 | 0 | 0 | 0 | 1 | 0 | 1 | 0 | 0 | 1 | 5 | 
11 | Nc1nc2ncc(CNc3ccc(C(=O)N[C@@H](CCC(=O)O)C(=O)O)cc3)nc2c(=O)[nH]1 [FOLIC ACID] | 0 | 0 | 0 | 0 | 0 | 0 | 0 | 0 | 0 | 0 | 0 | 0 | 0 | 0 | 
12 | Cc1cn[nH]c1 [FOMEPIZOLE] | 0 | 0 | 0 | 0 | 0 | 0 | 0 | 0 | 0 | 0 | 0 | 0 | 0 | 0 | 
